pIC50: −log10 of the molar value.
Tested on: KM12 cells
Assay: Cell viability assay (CellTiter-Glo) in KM12 cells
Type: cell-based
Conditions: Homo sapiens, 72 h; Table 3; KM12 cell viability, CellTiter-Glo, 3 days; read-out: IC50

Going from O=C1CCC(N2Cc3cc(C#CCN4CCN(c5cccc(-c6cnc7ccc(N8CCC[C@@H]8c8cccc(F)c8)nn67)n5)CC4)ccc3C2=O)C(=O)N1 (stereo partly drawn) [TR-188, 3-(5-(3-(4-(6-(6-((R)-2-(3-Fluorophenyl)pyrrolidin-1-yl)imidazo[1,2-b]pyridazin-3-yl)pyridin-2-yl)piperazin-1-yl)prop-1-yn-1-yl)-1-oxoisoindolin-2-yl)piperidine-2,6-dione] to O=C1CCC(N2Cc3cc(C#CC(=O)N4CCN(c5cccc(-c6cnc7ccc(N8CCC[C@@H]8c8cccc(F)c8)nn67)n5)CC4)ccc3C2=O)C(=O)N1 (stereo partly drawn) [TR-203], the pIC50 rises from 7.77 to 8.43 (0.66 log units).

O=C1CCC(N2Cc3ccc(NCC(=O)N4CCN(c5cccc(-c6cnc7ccc(N8CCC[C@@H]8c8cccc(F)c8)nn67)n5)CC4)cc3C2=O)C(=O)N1 (stereo partly drawn) [TR-189, 3-(6-((2-(4-(6-(6-((R)-2-(3-fluorophenyl)pyrrolidin-1-yl)imidazo[1,2-b]pyridazin-3-yl)pyridin-2-yl)piperazin-1-yl)-2-oxoethyl)amino)-1-oxoisoindolin-2-yl)piperidine-2,6-dione] and O=C1CCC(N2Cc3cc(NCC(=O)N4CCN(c5cccc(-c6cnc7ccc(N8CCC[C@@H]8c8cccc(F)c8)nn67)n5)CC4)ccc3C2=O)C(=O)N1 (stereo partly drawn) [TR-190, 3-(5-((2-(4-(6-(6-((R)-2-(3-fluorophenyl)pyrrolidin-1-yl)imidazo[1,2-b]pyridazin-3-yl)pyridin-2-yl)piperazin-1-yl)-2-oxoethyl)amino)-1-oxoisoindolin-2-yl)piperidine-2,6-dione] are within 0.2 log units of each other in pIC50: 8.60 for the first, 8.44 for the second.

First: O=C1CCC(N2Cc3cc(NCCN4CCN(c5cccc(-c6cnc7ccc(N8CCC[C@@H]8c8cccc(F)c8)nn67)n5)CC4)ccc3C2=O)C(=O)N1 (stereo partly drawn) [TR-191, 3-(5-((2-(4-(6-(6-((R)-2-(3-fluorophenyl)pyrrolidin-1-yl)imidazo[1,2-b]pyridazin-3-yl)pyridin-2-yl)piperazin-1-yl)ethyl)amino)-1-oxoisoindolin-2-yl)piperidine-2,6-dione]
Second: O=C1CCC(N2Cc3ccc(NCCN4CCN(c5cccc(-c6cnc7ccc(N8CCC[C@@H]8c8cccc(F)c8)nn67)n5)CC4)cc3C2=O)C(=O)N1 (stereo partly drawn) [TR-196, 3-(6-((2-(4-(6-(6-((R)-2-(3-fluorophenyl)pyrrolidin-1-yl)imidazo[1,2-b]pyridazin-3-yl)pyridin-2-yl)piperazin-1-yl)ethyl)amino)-1-oxoisoindolin-2-yl)piperidine-2,6-dione]
The pIC50 of the first is 0.24 log units lower: 8.27 for the first, 8.51 for the second. The second is the more potent here.

Going from O=C1CCC(N2C(=O)c3ccc(NCCNC4CN(c5cccc(-c6cnc7ccc(N8CCC[C@@H]8c8cccc(F)c8)nn67)n5)C4)cc3C2=O)C(=O)N1 (stereo partly drawn) [TR-192, 2-(2,6-Dioxopiperidin-3-yl)-5-((2-((1-(6-(6-((R)-2-(3-fluorophenyl)pyrrolidin-1-yl)imidazo[1,2-b]pyridazin-3-yl)pyridin-2-yl)azetidin-3-yl)amino)ethyl)amino)isoindoline-1,3-dione] to O=C1CCC(N2C(=O)c3ccc(NCCC4CN(c5cccc(-c6cnc7ccc(N8CCC[C@@H]8c8cccc(F)c8)nn67)n5)C4)cc3C2=O)C(=O)N1 (stereo partly drawn) [TR-193, 2-(2,6-Dioxopiperidin-3-yl)-5-((2-(1-(6-(6-((R)-2-(3-fluorophenyl)pyrrolidin-1-yl)imidazo[1,2-b]pyridazin-3-yl)pyridin-2-yl)azetidin-3-yl)ethyl)amino)isoindoline-1,3-dione], the pIC50 falls from 6.99 to 5.96 (1.03 log units). The first is the more potent here.

O=C1CCC(N2C(=O)c3ccc(CCC(=O)N4CCN(c5cccc(-c6cnc7ccc(N8CCC[C@@H]8c8cccc(F)c8)nn67)n5)CC4)cc3C2=O)C(=O)N1 (stereo partly drawn) [TR-194, 2-(2,6-Dioxopiperidin-3-yl)-5-(3-(4-(6-(6-((R)-2-(3-fluorophenyl)pyrrolidin-1-yl)imidazo[1,2-b]pyridazin-3-yl)pyridin-2-yl)piperazin-1-yl)-3-oxopropyl)isoindoline-1,3-dione] and O=C1CCC(N2C(=O)c3ccc(CCN4CCN(c5cccc(-c6cnc7ccc(N8CCC[C@@H]8c8cccc(F)c8)nn67)n5)CC4)cc3C2=O)C(=O)N1 (stereo partly drawn) [TR-204, 2-(2,6-dioxopiperidin-3-yl)-5-(2-(4-(6-(6-((R)-2-(3-fluorophenyl)pyrrolidin-1-yl)imidazo[1,2-b]pyridazin-3-yl)pyridin-2-yl)piperazin-1-yl)ethyl)isoindoline-1,3-dione] are within 0.2 log units of each other in pIC50: 8.13 for the first, 7.97 for the second.

Compared with O=C1CCC(N2C(=O)c3ccc(/C=C/C(=O)N4CCN(c5cccc(-c6cnc7ccc(N8CCC[C@@H]8c8cccc(F)c8)nn67)n5)CC4)cc3C2=O)C(=O)N1 (stereo partly drawn) [TR-195, 2-(2,6-Dioxopiperidin-3-yl)-5-((E)-3-(4-(6-(6-((R)-2-(3-fluorophenyl)pyrrolidin-1-yl)imidazo[1,2-b]pyridazin-3-yl)pyridin-2-yl)piperazin-1-yl)-3-oxoprop-1-en-1-yl)isoindoline-1,3-dione], O=C1CCC(N2C(=O)c3ccc(CN4CCN(c5cccc(-c6cnc7ccc(N8CCC[C@@H]8c8cccc(F)c8)nn67)n5)CC4)cc3C2=O)C(=O)N1 (stereo partly drawn) [TR-197, 2-(2,6-Dioxopiperidin-3-yl)-5-((4-(6-(6-((R)-2-(3-fluorophenyl)pyrrolidin-1-yl)imidazo[1,2-b]pyridazin-3-yl)pyridin-2-yl)piperazin-1-yl)methyl)isoindoline-1,3-dione] is 0.46 log units lower in pIC50: 7.63 for the first, 7.17 for the second.

Going from O=C1CCC(N2C(=O)c3ccc(NCCCOCCN4CCN(c5cccc(-c6cnc7ccc(N8CCC[C@@H]8c8cccc(F)c8)nn67)n5)CC4)cc3C2=O)C(=O)N1 (stereo partly drawn) [TR-199] to O=C1CCC(N2Cc3cc(OCCN4CCN(c5cccc(-c6cnc7ccc(N8CCC[C@@H]8c8cccc(F)c8)nn67)n5)CC4)ccc3C2=O)C(=O)N1 (stereo partly drawn) [TR-200, 3-(5-(2-(4-(6-(6-((R)-2-(3-fluorophenyl)pyrrolidin-1-yl)imidazo[1,2-b]pyridazin-3-yl)pyridin-2-yl)piperazin-1-yl)ethoxy)-1-oxoisoindolin-2-yl)piperidine-2,6-dione], the pIC50 falls from 7.40 to 7.00 (0.40 log units). The first is the more potent here.

First: O=C1CCC(N2Cc3ccc(OCCN4CCN(c5cccc(-c6cnc7ccc(N8CCC[C@@H]8c8cccc(F)c8)nn67)n5)CC4)cc3C2=O)C(=O)N1 (stereo partly drawn) [TR-201, 3-(6-(2-(4-(6-(6-((R)-2-(3-fluorophenyl)pyrrolidin-1-yl)imidazo[1,2-b]pyridazin-3-yl)pyridin-2-yl)piperazin-1-yl)ethoxy)-1-oxoisoindolin-2-yl)piperidine-2,6-dione]
Second: O=C1CCC(N2Cc3ccc(C#CC(=O)N4CCN(c5cccc(-c6cnc7ccc(N8CCC[C@@H]8c8cccc(F)c8)nn67)n5)CC4)cc3C2=O)C(=O)N1 (stereo partly drawn) [TR-202, 3-(6-(3-(4-(6-(6-((R)-2-(3-fluorophenyl)pyrrolidin-1-yl)imidazo[1,2-b]pyridazin-3-yl)pyridin-2-yl)piperazin-1-yl)-3-oxoprop-1-yn-1-yl)-1-oxoisoindolin-2-yl)piperidine-2,6-dione]
The pIC50 of the first is lower: < 6.30 for the first, 8.37 for the second. The second is the more potent here.

Same assay, conditions: Homo sapiens, 72 h; Table 4; KM12 cell viability, CellTiter-Glo, 3 days; read-out: IC50

Going from O=C1CCC(N2Cc3cc(N4CC(CN5CCN(c6cccc(-c7cnc8ccc(N9CCC[C@@H]9c9cccc(F)c9)nn78)n6)CC5)C4)ccc3C2=O)C(=O)N1 (stereo partly drawn) [TR-205, 3-(5-(3-((4-(6-(6-((R)-2-(3-Fluorophenyl)pyrrolidin-1-yl)imidazo[1,2-b]pyridazin-3-yl)pyridin-2-yl)piperazin-1-yl)methyl)azetidin-1-yl)-1-oxoisoindolin-2-yl)piperidine-2,6-dione] to O=C1CCC(N2Cc3cc(N4CCN(c5cccc(-c6cnc7ccc(N8CCC[C@@H]8c8cccc(F)c8)nn67)n5)CC4)ccc3C2=O)C(=O)N1 (stereo partly drawn) [TR-207, 3-(5-(4-(6-(6-((R)-2-(3-Fluorophenyl)pyrrolidin-1-yl)imidazo[1,2-b]pyridazin-3-yl)pyridin-2-yl)piperazin-1-yl)-1-oxoisoindolin-2-yl)piperidine-2,6-dione], the pIC50 rises from 6.91 to 7.50 (0.59 log units).

O=C1CCC(N2Cc3cc(NC4CN(c5cccc(-c6cnc7ccc(N8CCC[C@@H]8c8cccc(F)c8)nn67)n5)C4)ccc3C2=O)C(=O)N1 (stereo partly drawn) [TR-206, 3-(5-((1-(6-(6-((R)-2-(3-Fluorophenyl)pyrrolidin-1-yl)imidazo[1,2-b]pyridazin-3-yl)pyridin-2-yl)azetidin-3-yl)amino)-1-oxoisoindolin-2-yl)piperidine-2,6-dione] and O=C1CCC(N2Cc3cc(NCC4CN(c5cccc(-c6cnc7ccc(N8CCC[C@@H]8c8cccc(F)c8)nn67)n5)C4)ccc3C2=O)C(=O)N1 (stereo partly drawn) [TR-210, 3-(5-(((1-(6-(6-((R)-2-(3-Fluorophenyl)pyrrolidin-1-yl)imidazo[1,2-b]pyridazin-3-yl)pyridin-2-yl)azetidin-3-yl)methyl)amino)-1-oxoisoindolin-2-yl)piperidine-2,6-dione] are within 0.2 log units of each other in pIC50: 7.80 for the first, 7.85 for the second.

First: O=C1CCC(N2Cc3cc(C#CC4CCN(c5cccc(-c6cnc7ccc(N8CCC[C@@H]8c8cccc(F)c8)nn67)n5)CC4)ccc3C2=O)C(=O)N1 (stereo partly drawn) [TR-208, 3-(5-((1-(6-(6-((R)-2-(3-fluorophenyl)pyrrolidin-1-yl)imidazo [1,2-b]pyridazin-3-yl)pyridin-2-yl)piperidin-4-yl)ethynyl)-1-oxoisoindolin-2-yl)piperidine-2,6-dione]
Second: O=C1CCC(N2Cc3cc(NC4CCN(c5cccc(-c6cnc7ccc(N8CCC[C@@H]8c8cccc(F)c8)nn67)n5)CC4)ccc3C2=O)C(=O)N1 (stereo partly drawn) [TR-212, 3-(5-((1-(6-(6-((R)-2-(3-fluorophenyl)pyrrolidin-1-yl)imidazo[1,2-b]pyridazin-3-yl)pyridin-2-yl)piperidin-4-yl)amino)-1-oxoisoindolin-2-yl)piperidine-2,6-dione]
The pIC50 of the first is 0.35 log units higher: 8.15 for the first, 7.80 for the second. The first is the more potent here.

Going from O=C1CCC(N2C(=O)c3ccc(NC(=O)C4CN(c5cccc(-c6cnc7ccc(N8CCC[C@@H]8c8cccc(F)c8)nn67)n5)C4)cc3C2=O)C(=O)N1 (stereo partly drawn) [TR-209, N-(2-(2,6-Dioxopiperidin-3-yl)-1,3-dioxoisoindolin-5-yl)-1-(6-(6-((R)-2-(3-fluorophenyl)pyrrolidin-1-yl)imidazo[1,2-b]pyridazin-3-yl)pyridin-2-yl)azetidine-3-carboxamide] to O=C1CCC(N2C(=O)c3ccc(N4CC(C(=O)N5CCN(c6cccc(-c7cnc8ccc(N9CCC[C@@H]9c9cccc(F)c9)nn78)n6)CC5)C4)cc3C2=O)C(=O)N1 (stereo partly drawn) [TR-211, 2-(2,6-Dioxopiperidin-3-yl)-5-(3-(4-(6-(6-((R)-2-(3-fluorophenyl)pyrrolidin-1-yl)imidazo[1,2-b]pyridazin-3-yl)pyridin-2-yl)piperazine-1-carbonyl)azetidin-1-yl)isoindoline-1,3-dione], the pIC50 rises from < 6.30 to 8.70.
